# Data published in patent US9938292B2 (GUANGDONG ZHONGSHENG PHARMACEUTICAL CO., LTD, priority 2014, dated 2018).
# pIC50: −log10 of the molar value.
# System: Hedgehog signaling pathway
# Assay: Gli-Luc luciferase reporter gene assay in C3H10T1/2/Gli-Luc cells under Shh-N stimulation
# Type: cell-based
# Conditions: 24 h, luciferase RLU, read-out: biological activity: IC50 of the inhibitory activities of compounds on the hedgehog pathway
# Description: The luciferase (Gli-Luc) reporter gene with Gli response element was transfected into C3H10T1/2 cells, under Shh-N stimulation conditions, determine the Hedgehog signaling pathway inhibitors through the detection of gene expression in cell activity report. In this study, we evaluated the inhibitory effects of compounds on Hedgehog signaling pathway in the IC50 value of the compound as an index.
# Cell lines: C3H10T1/2/Gli-Luc stable cell line • C3H10T1/2/Gli-Luc Cell culture medium (DMEM/high glucose HyClone, #SH30022.01B; 10% serum Hyclone, #SV30087; 0.4% Hygromycin B Roche, #13398200) • 0.25% Trypsin-EDTA (Gibco, #25200)
# Shh-N, HEK293/SHH-N stable cell culture supernatant
# Inoculate the logarithmic growth phase of C3H10T1/2/Gli-Luc cells into a 96-well culture plate with 20000 cells per well, cells were cultured in a 37° C., 5% CO2 incubator overnight. The next day, the compounds were diluted in the following ways: the positive compound GDC0449 (1 mM) and the compounds (1 mM) to be measured were serially diluted to 7 concentrations by DMSO according to 1:3 and 1:10 respectively, the eighth is for DMSO control, and then diluted with fresh medium 100 times. The medium of the cells cultured overnight was removed, 80 μL fresh culture medium was added per well, then 20 μL gradiently diluted positive compound and compounds to be measured and 100 μL 30 nM Shh-N containing conditioned medium were added, each concentration repeated 2 wells, at the same time, positive and negative reference well were set (i.e. Shh Ctrl: 80 μL fresh medium+20 μL 1% DMSO containing medium+100 μL 30 nM Shh-N containing conditioned medium; Unstimulated Ctrl: 180 μL fresh medium+20 μL 1% DMSO containing medium), cells were cultured in the incubator for further 24 h.
# Intracellular luciferase activity detection: take the cells out of 96-well plate, discard the culture medium, the cells were washed with PBS twice, then each well added with 20 μL lysate (Promega E1531), oscillate pyrolysis at room temperature for 30 min. 5 μL cell lysates were transferred to 384-well plate (Greiner 781074), then each well was added with 25 μL luciferase reaction liquid (Promega E1501), after rapid mixed, immediately placed into the VarioSkan Flash multi-function reading instrument to read the relative light units (RLU) value.
# Data analysis: using Prism's GraphPad 5 for data analysis. RLU reading to the logarithmic mapping of compound concentration on behalf of luciferase activity, and then curve fitting using the following equation to give IC50 value, Y (RLU)=minimum+(maximum−minimum)/(1+10^(log of compound concentration−Log IC50)).
row,pIC50,Structure (SMILES)
1,≥ 7.30,COc1c(-c2cnc(N3C[C@@H](C)O[C@@H](C)C3)cn2)cnc2c(-c3ccc(C#N)cc3)cccc12 [Embodiment 177]

# Same assay, conditions: Mus musculus, C3H 10T1/2, 24 h, luciferase RLU, read-out: biological activity: IC50 of the inhibitory activities of compounds on the hedgehog pathway
row,pIC50,Structure (SMILES)
1,≥ 7.30,"Cc1cn(-c2ccc(N3Cc4nnc(C(F)(F)F)n4C(C)C3)cc2)c(=O)c2cccc(-c3ccc(C#N)cc3)c12 (stereo not shown) [Embodiment 41, 4-(4-methyl-2-(4-(5-methyl-3-(trifluoromethyl)-5,6-dihydro-[1,2,4]triazolo[4,3-a]pyrazin-7(8H)-yl)phenyl)-1-oxo-1,2-dihydroisoquinolin-5-yl)benzonitrile]"
2,6.30 to 7.00,Cc1cn(-c2ccc(N3C[C@@H](C)O[C@@H](C)C3)cc2)c(=O)c2cccc(-c3ccc(C#N)cc3F)c12 [Embodiment 60]
3,6.30 to 7.00,"COc1c(-c2ccc(N3C[C@@H](C)O[C@@H](C)C3)cc2)c(C(F)(F)F)nc2c(-c3ccc(C#N)cc3)cccc12 [Embodiment 141, 4-(3-(4-((2S,6R)-2,6-dimethylmorpholino)phenyl)-4-methoxy-2-(trifluoromethyl)quinolin-8-yl)benzonitrile]"
4,6.30 to 7.00,Cc1cn(-c2ccc(N3CC(C)N(CC4CC4)C(C)C3)cc2)c(=O)c2cccc(-c3ccc(C#N)cc3)c12 (stereo not shown) [Embodiment 36]
5,≥ 7.30,"CCC(=O)N1[C@H](C)CN(c2ccc(-c3cnc4c(-c5ccc(C#N)cc5)nccc4c3OC)cn2)C[C@@H]1C [Embodiment 149, 4-(3-(6-((3S,5R)-3,5-dimethyl-4-propionylpiperazizin-1-yl)pyridin-3-yl)-4-methoxy-1,7-naphthyridin-8-yl)benzonitrile]"
6,5.30 to 6.00,"Cc1cn(-c2ccc(N3C[C@@H](C)O[C@@H](C)C3)cc2)c(=O)c2cccc(-c3ccoc3)c12 [Embodiment 43, 2-(4-((2S,6R)-2,6-dimethylmorpholino)phenyl)-5-(furan-3-yl)-4-methylisoquinolin-1(2H)-one]"
7,≥ 7.30,COc1c(-c2ccc(N3C[C@@H](C)O[C@@H](C)C3)cc2)cnc2c(-c3ccc(C)nc3)cccc12 [Embodiment 94]
8,6.00 to 6.30,Cc1cn(-c2ccc(N3C[C@@H](C)O[C@@H](C)C3)cc2)c(=O)c2cccc(-c3ccc(Br)cc3)c12 [Embodiment 65]
9,6.30 to 7.00,"C[C@@H]1CN(c2ccc(-c3cnc4c(-c5ccc(C#N)cc5)cccc4c3)cc2)C[C@H](C)O1 [Embodiment 127, 4-(3-(4-((2S,6R)-2,6-dimethylmorpholino)phenyl)quinolin-8-yl)benzonitrile]"
10,6.30 to 7.00,Cc1cc(C#N)ccc1-c1cccc2c(=O)n(-c3ccc(N4C[C@@H](C)O[C@@H](C)C4)cc3)cc(C)c12 [Embodiment 62]
11,6.00 to 6.30,Cc1cn(-c2ccc(N3C[C@@H](C)O[C@@H](C)C3)cc2)c(=O)c2cccc(-c3ccccc3)c12 [Embodiment 57]
12,6.30 to 7.00,Cc1cn(-c2ccc(N3CCOC(C)(C)C3)cc2)c(=O)c2cccc(-c3ccc(C#N)cc3)c12 [Embodiment 4]
13,5.30 to 6.00,Cc1cn(-c2ccc(N3C[C@@H](C)O[C@@H](C)C3)cc2)c(=O)c2ccnc(-c3ccc(C(F)(F)F)cc3)c12 [Embodiment 82]
14,6.30 to 7.00,"COc1c(N2CCN(c3ccc(C(C)(C)O)cn3)CC2=O)cnc2c(-c3ccc(C#N)cc3)cccc12 [Embodiment 252, 4-(3-(4-(5-(2-hydroxypropan-2-yl)pyridin-2-yl)-2-oxopiperazin-1-yl-4-methoxyquinolin-8-yl))benzonitrile]"
15,6.30 to 7.00,COc1c(-c2ccc(N3C[C@@H](C)N(C(=O)C(C)(C)O)[C@@H](C)C3)cc2)cnc2c(-c3ccc(C#N)cc3)cccc12 [Embodiment 185]
16,7.00 to 7.30,Cc1cn(-c2ccc(N3CC(C)N(C(=O)C(C)C)C(C)C3)cc2)c(=O)c2cccc(-c3ccc(C#N)cc3)c12 (stereo not shown) [Embodiment 24]
17,6.30 to 7.00,"Cc1cn(-c2ccc(N3CC(C)N(C)C(C)C3)cc2)c(=O)c2cccc(-c3ccc(C#N)cc3)c12 (stereo not shown) [Embodiment 33, 4-(4-methyl-1-oxo-2-(4-(3,4,5-trimethylpiperazin-1-yl)phenyl)-1,2-dihydroisoquinolin-5-yl)benzonitrile]"
18,6.00 to 6.30,"CCC(=O)N1[C@H](C)CN(c2ccc(-c3cnc4c(-c5ccc(C#N)cc5)cccc4c3O)cn2)C[C@@H]1C [Embodiment 140, 4-(3-(6-((3S,5R)-3,5-dimethyl-4-propionylpiperazin-1-yl)pyridin-3-yl)-4-hydroxyquinolin-8-yl)benzonitrile]"
19,6.00 to 6.30,"C[C@@H]1CN(c2ccc(-c3c([O-])c4cccc(-c5ccc(C#N)cc5)c4n[n+]3C)cc2)C[C@H](C)O1 [Embodiment 150, 8-(4-cyanophenyl)-3-(4-((2R,6S)-2,6-dimethylmorpholino)phenyl)-2-methylcinnolin-2-ium-4-olate]"
20,≥ 7.30,"Cc1nc(N2C[C@@H](C)O[C@@H](C)C2)ccc1-c1cnc2c(-c3ccc(C#N)cc3)cccc2c1C1CC1 [Embodiment 257, 4-(4-cyclopropyl-3-(6-((2S,6R)-2,6-dimethylmorpholino)-2-methylpyridin-3-yl)quinolin-8-yl)benzonitrile]"
21,6.30 to 7.00,"COc1c(C2CCC(N3C[C@@H](C)O[C@@H](C)C3)CC2)cnc2c(-c3ccc(C#N)cc3)cccc12 (stereo partly shown) [Embodiment 232, 4-(3-(4-(2,6-dimethylmorpholino-4-yl)cyclohexyl)-4-methoxyquinolin-8-yl) benzonitrile]"
22,≥ 7.30,COc1c(-c2ccc(N3C[C@@H](C)N(C(=O)c4ccccc4)[C@@H](C)C3)cc2)cnc2c(-c3ccc(C#N)cc3)cccc12 [Embodiment 181]
23,6.00 to 6.30,Cc1cn(-c2ccc(N3C[C@@H](C)O[C@@H](C)C3)cc2)c(=O)c2cccc(-c3ccccc3C#N)c12 [Embodiment 64]
24,6.00 to 6.30,C[C@@H]1CN(c2ccc(-c3cnc4c(-c5ccc(C#N)cc5)cccc4c3OCCN(C)C)cc2)C[C@H](C)O1 [Embodiment 146]
25,6.00 to 6.30,"Cc1cn(-c2ccc(N3C[C@@H](C)O[C@@H](C)C3)cc2)c(=O)c2cncc(-c3ccc(C#N)cc3)c12 [Embodiment 86, 4-(7-(4-((2S,6R)-2,6-dimethylmorpholino)phenyl)-5-methyl-8-oxo-7,8-dihydro-2,7-naphthyridin-4-yl)benzonitrile]"
26,≥ 7.30,COc1c(-c2ccc(N3C[C@@H](C)O[C@@H](C)C3)cn2)cnc2c(-c3ccc(C#N)cc3)cccc12 [Embodiment 171]
27,≥ 7.30,"COc1c(N2CCC(O)(c3ccc(C(C)(C)O)cn3)CC2)cnc2c(-c3ccc(C#N)cc3)cccc12 [Embodiment 238, 4-(3-(4-hydroxy-4-(5-(2-hydroxypropan-2-yl)pyridin-2-yl)piperidin-1-yl)-4-methoxyquinolin-8-yl)benzonitrile]"
28,5.30 to 6.00,"COc1c(-c2ccc(N3C[C@@H](C)O[C@@H](C)C3)cc2)cnc2c(-c3nc(C#N)cs3)cccc12 [Embodiment 115, 2-(3-(4-((2S,6R)-2,6-dimethylmorpholino)phenyl)-4-methoxyquinolin-8-yl)thiazole-4-carbonitrile]"
29,6.30 to 7.00,COc1c(N2CCNCC2)cnc2c(-c3ccc(C#N)cc3)cccc12 [Embodiment 208]

row,Structure (SMILES),pIC50
1,"CCC(=O)N1[C@@H]2CC[C@H]1CN(c1ccc(-c3cnc4c(-c5ccc(C#N)cc5)cccc4c3OC)cn1)C2 [Embodiment 205, 4-(4-methoxy-3-(6-(8-propionyl-3,8-diazabicyclo[3.2.1]octan-3-yl)pyridin-3-yl)quinolin-8-yl)benzonitrile]",7.00 to 7.30
